Assay results from US20260216196A1, “IMIDAZO[1,2-A]PYRIDINE AND IMIDAZO[1,2-A]PYRAZINE DERIVATIVES AS MLLT1 AND MLLT3 INHIBITORS” (DARK BLUE THERAPEUTICS LTD., priority 2022, published 2026).
Counter-ions that a name gives are not always drawn.

Legend:
MLLT3 = MLLT3 (Homo sapiens, UniProt P42568); experiment: HTRF IC50 determination assay, MLLT3 / H3K9cro peptide displacement; conditions: MLLT3 assay IC50 (nM), 6His tagged MLLT3, biotinylated H3K9cro peptide, compound 20 μM to 20 nM, 11 data points in duplicate
MLLT1 = MLLT1 (Homo sapiens, UniProt Q03111); experiment: biochemical; conditions: MLLT1 assay IC50 (nM), HTRF, 6His tagged MLLT1, biotinylated H3K9cro peptide; compound 20 μM to 20 nM, 11 data points in duplicate
MLLT1, sequence (Q03111 whole entry): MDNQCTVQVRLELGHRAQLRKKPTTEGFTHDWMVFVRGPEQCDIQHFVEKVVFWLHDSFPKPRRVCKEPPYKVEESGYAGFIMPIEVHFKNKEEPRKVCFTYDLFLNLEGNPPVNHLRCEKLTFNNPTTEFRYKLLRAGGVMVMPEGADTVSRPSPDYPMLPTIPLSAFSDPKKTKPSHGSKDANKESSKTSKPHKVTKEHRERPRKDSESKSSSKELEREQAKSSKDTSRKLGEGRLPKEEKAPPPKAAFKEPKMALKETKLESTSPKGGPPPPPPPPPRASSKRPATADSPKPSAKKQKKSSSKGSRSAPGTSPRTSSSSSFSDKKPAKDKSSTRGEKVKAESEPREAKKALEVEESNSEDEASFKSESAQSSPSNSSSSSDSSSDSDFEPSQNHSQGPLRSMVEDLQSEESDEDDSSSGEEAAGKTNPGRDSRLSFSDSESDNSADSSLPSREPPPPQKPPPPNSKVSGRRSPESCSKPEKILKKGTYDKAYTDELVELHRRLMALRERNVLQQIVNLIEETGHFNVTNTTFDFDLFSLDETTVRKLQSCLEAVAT

MLLT3, sequence (P42568 whole entry): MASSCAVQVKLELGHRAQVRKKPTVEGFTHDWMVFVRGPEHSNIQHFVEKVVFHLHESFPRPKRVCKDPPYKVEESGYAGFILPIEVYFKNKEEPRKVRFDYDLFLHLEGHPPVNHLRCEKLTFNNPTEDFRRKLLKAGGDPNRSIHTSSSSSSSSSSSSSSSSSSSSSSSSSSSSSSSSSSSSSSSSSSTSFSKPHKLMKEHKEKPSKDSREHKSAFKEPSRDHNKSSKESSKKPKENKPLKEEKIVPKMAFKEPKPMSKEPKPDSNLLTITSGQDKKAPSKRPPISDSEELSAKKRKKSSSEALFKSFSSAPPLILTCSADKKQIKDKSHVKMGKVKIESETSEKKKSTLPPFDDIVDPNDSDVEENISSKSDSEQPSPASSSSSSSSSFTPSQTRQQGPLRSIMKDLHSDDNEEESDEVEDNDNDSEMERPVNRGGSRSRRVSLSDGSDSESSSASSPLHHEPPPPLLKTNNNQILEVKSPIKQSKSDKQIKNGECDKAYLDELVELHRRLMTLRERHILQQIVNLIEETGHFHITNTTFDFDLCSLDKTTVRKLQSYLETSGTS

SMILES | IC50 (MLLT3) | IC50 (MLLT1)
COc1cc(NC(=O)c2ccc3c(C)nn(C)c3c2)cn2cc(C3CCCN3C)nc12 (racemic) [Example 1, rac-N-[8-methoxy-2-(1-methylpyrrolidin-2-yl)imidazo[1,2-a]pyridin-6-yl]-1,3-dimethyl-indazole-6-carboxamide] | 150 to 1500 nM | 150 to 1500 nM
CN1CCOCC1c1cn2cc(NC(=O)c3ccc4c(cnn4C)c3)ccc2n1 (racemic) [Example 2, rac-1-methyl-N-[2-(4-methylmorpholin-3-yl)imidazo[1,2-a]pyridin-6-yl]indazole-5-carboxamide] | 1500 to 20000 nM | 1500 to 20000 nM
CN1CC2(CCCC2)CC1c1cn2cc(NC(=O)c3ccc4c(cnn4C)c3)ccc2n1 (racemic) [Example 3, rac-1-methyl-N-(2-{2-methyl-2-azaspiro[4.4]nonan-3-yl}imidazo[1,2-a]pyridin-6-yl)indazole-5-carboxamide] | 150 to 1500 nM | 150 to 1500 nM
CN1CCCC1(C)c1cn2cc(NC(=O)c3ccc4c(cnn4C)c3)ccc2n1 (racemic) [Example 4, rac-N-[2-(1,2-dimethylpyrrolidin-2-yl)imidazo[1,2-a]pyridin-6-yl]-1-methylindazole-5-carboxamide] | 1500 to 20000 nM | 150 to 1500 nM
CN1CCCC1c1cn2cc(NC(=O)c3cnc4cc(Cl)ccc4c3)ccc2n1 (racemic) [Example 9, rac-7-chloro-N-[2-(1-methylpyrrolidin-2-yl)imidazo[1,2-a]pyridin-6-yl]quinoline-3-carboxamide] | 1500 to 20000 nM | 1500 to 20000 nM
CN1CCCC1c1cn2cc(NC(=O)c3ccc4ncccc4n3)ccc2n1 (racemic) [Example 10, rac-N-[2-(1-methylpyrrolidin-2-yl)imidazo[1,2-a]pyridin-6-yl]-1,5-naphthyridine-2-carboxamide] | > 20000 nM | 1500 to 20000 nM
Cc1nc2ccc(C(=O)Nc3ccc4nc(C5CCCN5C)cn4c3)cc2nc1C (racemic) [Example 11, rac-2,3-dimethyl-N-[2-(1-methylpyrrolidin-2-yl)imidazo[1,2-a]pyridin-6-yl]quinoxaline-6-carboxamide] | 150 to 1500 nM | 150 to 1500 nM
CN1CCCC1c1cn2cc(NC(=O)c3ccc(-n4cncn4)cc3)ccc2n1 (racemic) [Example 12, rac-N-[2-(1-methylpyrrolidin-2-yl)imidazo[1,2-a]pyridin-6-yl]-4-(1H-1,2,4-triazol-1-yl)benzamide] | 1500 to 20000 nM | 150 to 1500 nM
CN1CCCC1c1cn2cc(NC(=O)c3ccc(-n4cccn4)nc3)ccc2n1 (racemic) [Example 13, rac-N-[2-(1-methylpyrrolidin-2-yl)imidazo[1,2-a]pyridin-6-yl]-6-(1H-pyrazol-1-yl)pyridine-3-carboxamide] | 1500 to 20000 nM | 1500 to 20000 nM
Cc1nn(C)c2cc(C(=O)Nc3ccc4nc(C5CCCN5C)cn4c3)ccc12 (racemic) [Example 14, rac-1,3-dimethyl-N-[2-(1-methylpyrrolidin-2-yl)imidazo[1,2-a]pyridin-6-yl]-1H-indazole-6-carboxamide] | 150 to 1500 nM | 150 to 1500 nM
Cc1nn(C)c2ncc(C(=O)Nc3ccc4nc(C5CCCN5C)cn4c3)c(Cl)c12 (racemic) [Example 15, rac-4-chloro-1,3-dimethyl-N-[2-(1-methylpyrrolidin-2-yl)imidazo[1,2-a]pyridin-6-yl]-1H-pyrazolo[3,4-b]pyridine-5-carboxamide] | 1500 to 20000 nM | 1500 to 20000 nM
Cc1nc(-c2ccc(C(=O)Nc3ccc4nc(C5CCCN5C)cn4c3)cc2)cs1 (racemic) [Example 16, rac-4-(2-methyl-1,3-thiazol-4-yl)-N-[2-(1-methylpyrrolidin-2-yl)imidazo[1,2-a]pyridin-6-yl]benzamide] | 150 to 1500 nM | 150 to 1500 nM
COc1ccc2nc(C(=O)Nc3ccc4nc(C5CCCN5C)cn4c3)sc2c1 (racemic) [Example 17, rac-6-methoxy-N-[2-(1-methylpyrrolidin-2-yl)imidazo[1,2-a]pyridin-6-yl]-1,3-benzothiazole-2-carboxamide] | 1500 to 20000 nM | 1500 to 20000 nM
Cc1nn(C)c2sc(C(=O)Nc3ccc4nc(C5CCCN5C)cn4c3)cc12 (racemic) [Example 18, rac-1,3-dimethyl-N-[2-(1-methylpyrrolidin-2-yl)imidazo[1,2-a]pyridin-6-yl]-1H-thieno[2,3-c]pyrazole-5-carboxamide] | 1500 to 20000 nM | 1500 to 20000 nM
Cc1noc2cc(C(=O)Nc3ccc4nc(C5CCCN5C)cn4c3)ccc12 (racemic) [Example 29, rac-3-methyl-N-[2-(1-methylpyrrolidin-2-yl)imidazo[1,2-a]pyridin-6-yl]-1,2-benzoxazole-6-carboxamide] | 1500 to 20000 nM | 1500 to 20000 nM

Results, then the compound that gave them:

IC50 (MLLT3) | IC50 (MLLT1) | SMILES
150 to 1500 nM | 150 to 1500 nM | Cc1nn(C)c2cc(C(=O)Nc3ccc4nc(C5CCCN5C)cn4c3)c(F)cc12 (racemic) [Example 30, rac-5-fluoro-1,3-dimethyl-N-[2-(1-methylpyrrolidin-2-yl)imidazo[1,2-a]pyridin-6-yllindazole-6-carboxamide]
1500 to 20000 nM | 1500 to 20000 nM | Cc1nn(C)c2nc(C(=O)Nc3ccc4nc(C5CCCN5C)cn4c3)ccc12 (racemic) [Example 31, rac-1,3-dimethyl-N-[2-(1-methylpyrrolidin-2-yl)imidazo[1,2-a]pyridin-6-yl]-1H-pyrazolo[3,4-b]pyridine-6-carboxamide]
1500 to 20000 nM | 150 to 1500 nM | CN1CCCC1c1cn2cc(NC(=O)c3ccn4ccnc4c3)ccc2n1 (racemic) [Example 32, rac-N-[2-(1-methylpyrrolidin-2-yl)imidazo[1,2-a]pyridin-6-yl]imidazo[1,2-a]pyridine-7-carboxamide]
1500 to 20000 nM | 150 to 1500 nM | CN1CCCC1c1cn2cc(NC(=O)c3ccn4cnnc4c3)ccc2n1 (racemic) [Example 33, rac-N-[2-(1-methylpyrrolidin-2-yl)imidazo[1,2-a]pyridin-6-yl]-[1,2,4]triazolo[4,3-alpyridine-7-carboxamide]
1500 to 20000 nM | 1500 to 20000 nM | CN1CCCC1c1cn2cc(NC(=O)c3cn4ccncc4n3)ccc2n1 (racemic) [Example 34, rac-N-[2-(1-methylpyrrolidin-2-yl)imidazo[1,2-a]pyridin-6-yl]imidazo[1,2-a]pyrazine-2-carboxamide]
1500 to 20000 nM | 1500 to 20000 nM | CCc1nnc2cc(C(=O)Nc3ccc4nc(C5CCCN5C)cn4c3)ccn12 (racemic) [Example 35, rac-3-ethyl-N-[2-(1-methylpyrrolidin-2-yl)imidazo[1,2-a]pyridin-6-yl]-[1,2,4]triazolo[4,3-a]pyridine-7-carboxamide formate]
> 20000 nM | 1500 to 20000 nM | CN1CCCC1c1cn2cc(NC(=O)c3ccc4nc[nH]c4n3)ccc2n1 (racemic) [Example 36, rac-N-[2-(1-methylpyrrolidin-2-yl)imidazo[1,2-a]pyridin-6-yl]-3H-imidazo[4,5-b]pyridine-5-carboxamide]
1500 to 20000 nM | 150 to 1500 nM | CN1CCCC1c1cn2cc(NC(=O)c3ccc4ncoc4c3)ccc2n1 (racemic) [Example 37, rac-N-[2-(1-methylpyrrolidin-2-yl)imidazo[1,2-a]pyridin-6-yl]-1,3-benzoxazole-6-carboxamide]
1500 to 20000 nM | 1500 to 20000 nM | COc1ccc(-c2nc(C(=O)Nc3ccc4nc(C5CCCN5C)cn4c3)cs2)cc1 (racemic) [Example 38, rac-2-(4-methoxyphenyl)-N-[2-(1-methylpyrrolidin-2-yl)imidazo[1,2-a]pyridin-6-yl]-1,3-thiazole-4-carboxamide]
> 20000 nM | 1500 to 20000 nM | COc1ccc2c(C(=O)Nc3ccc4nc(C5CCCN5C)cn4c3)c[nH]c2c1 (racemic) [Example 39, rac-6-methoxy-N-[2-(1-methylpyrrolidin-2-yl)imidazo[1,2-a]pyridin-6-yl]-1H-indole-3-carboxamide]
1500 to 20000 nM | 150 to 1500 nM | CN1CCCC1c1cn2cc(NC(=O)c3ccc(-n4cccn4)cc3)ccc2n1 (racemic) [Example 40, rac-N-[2-(1-methylpyrrolidin-2-yl)imidazo[1,2-a]pyridin-6-yl]-4-(1H-pyrazol-1-yl)benzamide]
150 to 1500 nM |  | CCc1nn(C)c2ccc(C(=O)Nc3ccc4nc(C5CCCN5C)cn4c3)cc12 (racemic) [Example 61, rac-3-ethyl-1-methyl-N-[2-(1-methylpyrrolidin-2-yl)imidazo[1,2-a]pyridin-6-yl]-1H-indazole-5-carboxamide]
1500 to 20000 nM |  | CCC1CC(c2cn3cc(NC(=O)c4ccc5c(C)nn(C)c5c4)ncc3n2)N(C)C1 (single isomer, unassigned) [Example 77, N-{2-[4-ethyl-1-methylpyrrolidin-2-yl]imidazo[1,2-a]pyrazin-6-yl}-1,3-dimethyl-1H-indazole-6-carboxamide]
150 to 1500 nM |  | CCC1CC(c2cn3cc(NC(=O)c4ccc5c(C)nn(C)c5c4)ncc3n2)N(C)C1 (single isomer, unassigned) [Example 78, N-{2-[4-ethyl-1-methylpyrrolidin-2-yl]imidazo[1,2-a]pyrazin-6-yl}-1,3-dimethyl-1H-indazole-6-carboxamide]
< 150 nM |  | CCC1CC(c2cn3cc(NC(=O)c4ccc5c(C)nn(C)c5c4)ncc3n2)N(C)C1 (single isomer, unassigned) [Example 79, N-{2-[4-ethyl-1-methylpyrrolidin-2-yl]imidazo[1,2-a]pyrazin-6-yl}-1,3-dimethyl-1H-indazole-6-carboxamide]
< 150 nM |  | CCC1CC(c2cn3cc(NC(=O)c4ccc5c(C)nn(C)c5c4)ncc3n2)N(C)C1 (single isomer, unassigned) [Example 80, N-{2-[4-ethyl-1-methylpyrrolidin-2-yl]imidazo[1,2-a]pyrazin-6-yl}-1,3-dimethyl-1H-indazole-6-carboxamide]
